The values below come from patent publication US12011444B2, “N-substituted indole derivatives as PGE2 receptor modulators” (Idorsia Pharmaceuticals Ltd, priority 2015, dated 2024).

The target in one test is EP4 (Homo sapiens (Human), UniProt P35408). Kind of test: hEP4 cAMP assay (BT549 breast cancer cells, HTRF cAMP). Conditions: antagonistic activity; mean values where measured multiple times. Type of test: cell-based. Here is the method:
Plate is pre-incubated 45 minutes at room temperature. Subsequently, 2.5 microliters of PGE2 (final conc. 6 nM) are transferred into the assay plate. Plate is incubated 30 minutes at room temperature.
A general note: cAMP levels reflect the balance of adenylyl cyclase and phosphodiesterase activity.

A further test has as its target EP2 (Homo sapiens (Human), UniProt P43116).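 Further: antagonism of PGE2-stimulated cAMP accumulation in SF295 human glioblastoma cells with endogenous EP2, cAMP read by HTRF, expressed relative to DMSO control.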

EP2, sequence (P43116 whole entry): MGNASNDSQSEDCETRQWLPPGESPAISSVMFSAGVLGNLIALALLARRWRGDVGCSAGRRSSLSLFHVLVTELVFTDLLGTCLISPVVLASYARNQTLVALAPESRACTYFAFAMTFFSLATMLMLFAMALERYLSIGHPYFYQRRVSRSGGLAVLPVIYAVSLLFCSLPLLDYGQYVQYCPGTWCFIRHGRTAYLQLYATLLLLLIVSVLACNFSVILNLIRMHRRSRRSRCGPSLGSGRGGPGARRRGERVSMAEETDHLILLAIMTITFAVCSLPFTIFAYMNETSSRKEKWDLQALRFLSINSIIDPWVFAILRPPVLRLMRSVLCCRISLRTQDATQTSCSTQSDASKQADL
EP4, sequence (P35408 whole entry): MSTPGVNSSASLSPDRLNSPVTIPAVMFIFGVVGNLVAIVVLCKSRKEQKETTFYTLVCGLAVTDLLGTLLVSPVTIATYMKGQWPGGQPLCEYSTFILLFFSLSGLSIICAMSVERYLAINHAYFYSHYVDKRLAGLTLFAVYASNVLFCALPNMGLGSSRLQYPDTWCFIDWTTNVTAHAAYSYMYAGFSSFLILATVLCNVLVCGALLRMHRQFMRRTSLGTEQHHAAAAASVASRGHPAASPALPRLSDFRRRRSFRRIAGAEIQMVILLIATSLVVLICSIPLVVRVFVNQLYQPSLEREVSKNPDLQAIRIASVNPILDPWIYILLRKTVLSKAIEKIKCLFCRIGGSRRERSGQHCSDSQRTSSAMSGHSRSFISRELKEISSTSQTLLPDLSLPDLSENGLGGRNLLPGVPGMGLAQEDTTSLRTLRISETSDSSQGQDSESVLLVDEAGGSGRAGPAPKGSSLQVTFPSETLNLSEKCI

By IC50 is commonly meant the concentration at which inhibition is half-maximal. Lower therefore signals higher potency. On to `COc1cc(F)c(F)c2c1cc(C)n2CCNc1cc(-c2ccc(-c3ccno3)cc2)ncn1` [compound 745, [2-(6,7-Difluoro-4-methoxy-2-methyl-indol-1-yl)-ethyl]-[6-(4-isoxazol-5-yl-phenyl)-pyrimidin-4-yl]-amine], for which the IC50 against EP4 was 0.84 µM; at EP2, 0.025 µM.

As to `CCOc1cc(-c2cc(NCCn3c(C)cc4c(OC)ccc(Cl)c43)ncn2)ccc1C(=O)O` [compound 405], the IC50 against EP4 is 0.356 µM; against EP2 it was 0.018 µM.

Turning to `COc1cc(F)cc2c1cc(C)n2CCNc1cc(-c2ccc(C(=O)O)c(OCC(C)C)c2)ncn1` [compound 612], the figures for the IC50 on EP4 and against EP2 were 0.079 µM and 0.008 µM, respectively.

For the molecule `Cc1ccc(Cl)c2c1cc(C)n2CCNc1cc(-c2ccc(C(=O)O)c(S/C=C/F)c2)ncn1` [Example 788, 4-{6-[2-(7-Chloro-2,4-dimethyl-indol-1-yl)-ethylamino]-pyrimidin-4-yl}-2-((E)-2-fluoro-vinylsulfanyl)-benzoic acid], the results for the half-inhibitory concentration (IC50) on EP4 and at EP2 were 0.925 µM and 0.049 µM, respectively.

In the case of `COc1ccc(F)c2c1cc(C)n2CCNc1cc(-c2ccc(C(=O)O)c(OCC(C)C)c2)ncn1` [compound 616], the IC50 is 0.085 µM against EP4 and 0.005 µM at EP2.

For the molecule `CCOc1cc(-c2cc(NCCn3c(C)cc4c(C(F)(F)F)ccc(F)c43)ncn2)ccc1C(=O)O` [compound 543], the figures for the IC50 on EP4 and against EP2 were 0.25 µM and 0.99 µM, respectively.

Regarding `Cc1cc2ccccc2n1CCNc1cc(-c2ccc(-c3nnn[nH]3)s2)ncn1` [Example 792, [2-(2-Methyl-indol-1-yl)-ethyl]-{6-[5-(1H-tetrazol-5-yl)-thiophen-2-yl]-pyrimidin-4-yl}-amine], the values for the IC50 against EP4 and on EP2 were 0.227 µM and 0.002 µM, respectively.

With `CCCc1cc(-c2cc(NCCn3c(C)cc4c(OC)cc(F)cc43)ncn2)cc(Cl)c1C(=O)O` [compound 519], the IC50 on EP4 is 0.034 µM; at EP2, 0.005 µM.

Consider `CNS(=O)(=O)c1ccc(-c2cc(NCCn3c(C)cc4c(OC)ccc(F)c43)ncn2)cc1C(F)(F)F` [compound 591, 4-{6-[2-(7-Fluoro-4-methoxy-2-methyl-indol-1-yl)-ethylamino]-pyrimidin-4-yl}-N-methyl-2-trifluoromethyl-benzenesulfonamide], for which the IC50 against EP4 came out at 0.294 µM; on EP2 it was 0.033 µM.

Consider `CCCOc1cc(-c2cc(NCCn3c(C)cc4c(OC)ccc(F)c43)ncn2)cc(Cl)c1C(=O)O` [compound 609], for which the values for the 50% inhibitory concentration (IC50) against EP4 and against EP2 were 0.042 µM and 0.01 µM, respectively.

Turning to `COc1cc(-c2cc(NCCn3c(C)cc4c(OC)ccc(F)c43)ncn2)cc(C)c1C(=O)O` [compound 406], the half-maximal inhibitory concentration (IC50) amounted to 0.266 µM against EP4 and 0.047 µM on EP2.

For the molecule `COc1ccc(Cl)c2c1cc(C)n2CCNc1cc(-c2ccc(C(=O)O)c(OC(F)F)c2)ncn1` [compound 631], the results for the IC50 against EP4 and against EP2 were 0.32 µM and 0.014 µM, respectively.

`CCOc1cc(-c2cc(NCCn3c(C)cc4c(OC)cccc43)ncn2)cc(F)c1C(=O)O` [compound 407]: the IC50 against EP4 amounted to 0.636 µM; against EP2, 0.015 µM.

On to `CCOc1cc(-c2cc(NCCn3c(C)cc4c(C)c(F)cc(F)c43)ncn2)ccc1C(=O)O` [compound 430], for which the IC50 against EP4 stood at 0.088 µM; at EP2, 0.009 µM.

`COc1ccc(F)c2c1cc(C)n2CCNc1cc(-c2ccc(-c3onc(C)c3C(=O)O)cc2)ncn1` [compound 596]: the IC50 against EP4 stood at 0.222 µM; against EP2, 0.01 µM.

For `CCOc1cc(-c2cc(NCCn3c(C)cc4c(C)ccc(F)c43)ncn2)cc(CC)c1C(=O)O` [compound 532], the figures for the half-inhibitory concentration (IC50) on EP4 and against EP2 were 0.828 µM and 0.033 µM, respectively.

Regarding `COc1cc(F)cc2c1cc(C)n2CCNc1cc(-c2ccc3[nH]c(C(F)(F)F)nc3c2)ncn1` [compound 640], the results for the IC50 against EP4 and against EP2 were 0.43 µM and 0.483 µM, respectively.

Regarding `CCOc1cc(-c2cc(NCCn3c(C)cc4c(C)cc(F)cc43)nc(C(F)(F)F)n2)sc1C(=O)O` [compound 626], the IC50 was found to be 0.356 µM against EP4 and 0.051 µM against EP2.

As to `COc1cc(F)cc2c1cc(C)n2CCNc1cc(-c2ccc(C(=O)O)c(CC(C)C)c2)nc(C)n1` [compound 623], the concentration for half-maximal inhibition (IC50) against EP4 was 0.13 µM; on EP2, 0.045 µM.

As for `COc1ccc(F)c2c1cc(C)n2CCNc1cc(-c2ccc(C(=O)O)c(N3CCCC3)c2)ncn1` [compound 478, 4-{6-[2-(7-Fluoro-4-methoxy-2-methyl-indol-1-yl)-ethylamino]-pyrimidin-4-yl}-2-pyrrolidin-1-yl-benzoic acid], the IC50 against EP4 amounted to 0.665 µM; against EP2, 0.011 µM.

For `CCCc1cc(-c2cc(NCCn3c(C)cc4c(OC)c(F)ccc43)ncn2)cc(F)c1C(=O)O` [compound 520], the IC50 against EP4 came to 0.482 µM; against EP2, 0.082 µM.

As for `Cc1cc(F)c(F)c2c1cc(C)n2CCNc1cc(-c2ccc(-c3noc(=O)[nH]3)cc2)ncn1` [compound 680], the IC50 on EP4 turned out to be 0.113 µM; at EP2, 0.056 µM.

Regarding `Cc1cc(Cl)cc2c1cc(C)n2CCNc1cc(-c2ccc(C(=O)O)c(CC(C)C)c2)ncn1` [compound 421], the IC50 was determined as 0.342 µM at EP4 and 0.06 µM at EP2.

As to `CCCOc1cc(-c2cc(NCCn3c(C)cc4c(OC)ccc(F)c43)ncn2)ccc1C(=O)O` [compound 496], the IC50 against EP4 worked out at 0.099 µM; against EP2, 0.008 µM.

With `COc1cc(F)c(F)c2c1cc(C)n2CCNc1cc(-c2ccc(C(=O)O)c(OC(F)(F)F)c2)ncn1` [compound 636], the half-inhibitory concentration (IC50) at EP4 is 0.255 µM; at EP2 it was 0.068 µM.

`COc1cc(F)cc2c1cc(C)n2CCNc1cc(-c2ccc3[nH]ccc3c2)ncn1` [compound 699, [2-(6-Fluoro-4-methoxy-2-methyl-indol-1-yl)-ethyl]-[6-(1H-indol-5-yl)-pyrimidin-4-yl]-amine]: the results for the half-inhibitory concentration (IC50) against EP4 and on EP2 were 0.063 µM and 0.009 µM, respectively.

For `CCOc1cc(-c2cc(NCCn3c(C)cc4c(OC)ccc(F)c43)ncn2)ccc1CNCCOC` [compound 589], the IC50 against EP4 is 0.707 µM; at EP2, 0.228 µM.

For `Cc1cc(-c2ccc(-c3cc(NCCn4c(C)cc5c(C)cc(F)cc54)ncn3)cc2)on1` [compound 713], the IC50 stood at 0.267 µM at EP4 and 0.073 µM on EP2.

With `CCNc1cc(-c2cc(NCCn3c(C)cc4c(C)ccc(F)c43)ncn2)ccc1-c1nnn[nH]1` [compound 668, {6-[3-Ethylamino-4-(1H-tetrazol-5-yl)-phenyl]-pyrimidin-4-yl}-[2-(7-fluoro-2,4-dimethyl-indol-1-yl)-ethyl]-amine], the IC50 at EP4 was found to be 0.022 µM; against EP2 it was 0.008 µM.

As to `CCOc1cc(-c2cc(NCCn3c(C)cc4c(OC)ccc(F)c43)ncn2)ccc1CNC1CC1` [compound 473], the results for the IC50 on EP4 and against EP2 were 0.646 µM and 0.538 µM, respectively.

Take `CCCc1cc(-c2cc(NCCn3c(C)cc4c(OC)ccc(Cl)c43)ncn2)cc(F)c1C(=O)O` [compound 512]: the values for the IC50 against EP4 and against EP2 were 0.253 µM and 0.021 µM, respectively.

For the molecule `CCOc1cc(-c2cc(NCCn3c(C)cc4c(OC)cc(F)c(F)c43)ncn2)cc(F)c1-c1nnn[nH]1` [compound 656], the IC50 against EP4 came to 0.089 µM; against EP2, 0.052 µM.

With `Cc1cc(F)cc2c1cc(C)n2CCNc1cc(-c2ccc3nccnc3c2)ncn1` [compound 733], the half-inhibitory concentration (IC50) was 0.809 µM on EP4 and 0.088 µM against EP2.

As for `CCCc1cc(-c2cc(NCCn3c(C)cc4c(C)ccc(F)c43)ncn2)cc(OCC)c1C(=O)O` [compound 624], the IC50 on EP4 worked out at 0.501 µM; against EP2, 0.048 µM.

For the molecule `COc1ccc(F)c2c1cc(C)n2CCNc1cc(-c2ccc(-c3n[nH]cc3C(=O)O)cc2)ncn1` [compound 593], the IC50 amounted to 0.435 µM against EP4 and 0.157 µM at EP2.

For the molecule `COc1cc(F)cc2c1cc(C)n2CCNc1cc(-c2ccc(-c3ccon3)cc2)ncn1` [compound 558], the IC50 was found to be 0.111 µM against EP4 and 0.016 µM on EP2.

In the case of `CCCc1cc(-c2cc(NCCn3c(C)cc4c(OC)cc(Cl)cc43)ncn2)cc(F)c1C(=O)O` [compound 511], the 50% inhibitory concentration (IC50) on EP4 was 0.158 µM; against EP2, 0.018 µM.

As for `CCCOc1cc(-c2cc(NCCn3c(C)cc4c(OC)cc(F)c(F)c43)ncn2)cc(Cl)c1C(=O)O` [compound 638], the IC50 against EP4 was found to be 0.033 µM; at EP2, 0.061 µM.

In the case of `Cc1cnoc1-c1ccc(-c2cc(NCCn3c(C)cc4c(C)cc(F)c(F)c43)ncn2)cc1` [compound 719], the IC50 at EP4 came out at 0.389 µM; at EP2, 0.223 µM.

Turning to `COc1cc(-c2cc(NCCn3c(C)cc4c(C)ccc(F)c43)ncn2)ccc1-c1nnn[nH]1` [Example 748, [2-(7-Fluoro-2,4-dimethyl-indol-1-yl)-ethyl]-{6-[3-methoxy-4-(1H-tetrazol-5-yl)-phenyl]-pyrimidin-4-yl}-amine], the IC50 amounted to 0.17 µM on EP4 and 0.07 µM against EP2.

Consider `COc1cc(F)c(F)c2c1cc(C)n2CCNc1cc(-c2ccc(-c3oncc3C)cc2)ncn1` [compound 738], for which the figures for the IC50 at EP4 and at EP2 were 0.177 µM and 0.063 µM, respectively.

As to `Cc1cnoc1-c1ccc(-c2cc(NCCn3c(C)cc4c(C)ccc(F)c43)ncn2)cc1` [compound 735], the IC50 is 0.62 µM against EP4 and 0.093 µM against EP2.

Regarding `CCCOc1cc(-c2cc(NCCn3c(C)cc4c(OC)cc(F)cc43)ncn2)ccc1C(=O)O` [compound 493], the IC50 at EP4 is 0.119 µM; against EP2, 0.021 µM.

Take `Cc1ccc(F)c2c1cc(C)n2CCNc1cc(-c2ccc3nn[nH]c3c2)ncn1` [compound 739, [6-(3H-Benzotriazol-5-yl)-pyrimidin-4-yl]-[2-(7-fluoro-2,4-dimethyl-indol-1-yl)-ethyl]-amine]: the IC50 on EP4 was found to be 0.45 µM; at EP2 it was 0.043 µM.

As for `Cc1ccc(F)c2c1cc(C)n2CCNc1cc(-c2ccc(-c3cnc(CCC(=O)O)o3)cc2)ncn1` [compound 643], the 50% inhibitory concentration (IC50) turned out to be 0.706 µM at EP4 and 0.294 µM against EP2.

Consider `CCOc1cc(-c2cc(NCCn3c(C)cc4c(C)cc(F)c(F)c43)ncn2)cc(F)c1-c1nnn[nH]1` [compound 657], for which the IC50 against EP4 worked out at 0.189 µM; at EP2, 0.071 µM.
